Source: ChEMBL document CHEMBL1201862, “PubChem BioAssay data set” (2004)
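Step 1: Grow cells in 96-well plates. Step 2: Expose to compound for 48 hours at 5 concentrations. Step 3: Interpolate endpoints linearly; if unreached, use highest concentration. The concentration for 50% growth inhibition is given as GI50.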 Active and inactive are the calls of the source. Cut-off read from the data, not from the text of the source: active = GI50 up to about 1.1 µM and inactive = higher.

Columns and labels:
Assay in all cases: NCI tumour cell line growth inhibition, 48 h
[1] = system: SNB-19
[2] = system: HOP-92
[3] = system: MCF7
[4] = system: UO-31
[5] = system: Hs-578T
[6] = system: MDA-MB-435
[7] = system: HCT-15
[8] = system: SNB-75
[9] = system: A498
[10] = system: OVCAR-8
[11] = system: M14
[12] = system: OVCAR-5
[13] = system: IGROV-1
[14] = system: K562
[15] = system: RXF 393
[16] = system: SF-295
[17] = system: SF-539
[18] = system: SK-MEL-5
[19] = system: SF-268
[20] = system: MDA-N
[21] = system: PC-3
[22] = system: MOLT-4
[23] = system: HL-60
[24] = system: BT-549
[25] = system: Malme-3M
[26] = system: U-251
[27] = system: NCI-H23
[28] = system: NCI-H226
[29] = system: CAKI-1
[30] = system: OVCAR-3
[31] = system: UACC-257
[32] = system: NCI-H460
[33] = system: HT-29
[34] = system: KM12
[35] = system: HCT-116
[36] = system: DU-145
[37] = system: RPMI-8226
[38] = system: SK-OV-3
[39] = system: LOX IMVI
[40] = system: EKVX
[41] = system: TK-10
[42] = system: MDA-MB-231
[43] = system: UACC-62
[44] = system: HCC 2998
[45] = system: 786-0
[46] = system: ACHN
[47] = system: COLO 205
[48] = system: A549
[49] = system: SR
[50] = system: CCRF-CEM
[51] = system: T47D
[52] = system: SN12C
[53] = system: NCI/ADR-RES
[54] = system: HOP-62
[55] = system: SK-MEL-28
[56] = system: NCI-H522
[57] = system: SK-MEL-2
[58] = system: SW-620
[59] = system: OVCAR-4

Structure (SMILES): O=C1c2ccccc2C(=O)c2c1sc1nc3ccccc3n21
- GI50 [1]: 2.11 µM (inactive)
- GI50 [2]: 10.4 µM (inactive)
- GI50 [3]: 1.86 µM (inactive)
- GI50 [4]: 2.01 µM (inactive)
- GI50 [5]: 0.0239 µM (active)
- GI50 [6]: 2.11 µM (inactive)
- GI50 [7]: 1.36 µM
- GI50 [8]: 13.1 µM (inactive)
- GI50 [9]: 10.7 µM (inactive)
- GI50 [10]: 1.9 µM (inactive)
- GI50 [11]: 1.73 µM (inactive)
- GI50 [12]: 2.45 µM (inactive)
- GI50 [13]: 2.44 µM (inactive)
- GI50 [14]: 2.03 µM (inactive)
- GI50 [15]: 1.79 µM (inactive)
- GI50 [16]: 1.66 µM (inactive)
- GI50 [17]: 1.81 µM (inactive)
- GI50 [18]: 16.5 µM (inactive)
- GI50 [19]: 1.89 µM (inactive)
- GI50 [20]: 1.79 µM (inactive)
- GI50 [21]: 2.64 µM (inactive)
- GI50 [22]: 1.97 µM (inactive)
- GI50 [23]: 3.8 µM (inactive)
- GI50 [24]: 1.98 µM (inactive)
- GI50 [25]: 0.439 µM (active)
- GI50 [26]: 3.52 µM (inactive)
- GI50 [27]: 1.29 µM (inactive)
- GI50 [28]: 5.68 µM (inactive)
- GI50 [29]: 1.99 µM (inactive)
- GI50 [30]: 2.86 µM (inactive)
- GI50 [31]: 1.88 µM (inactive)
- GI50 [32]: 1.79 µM (inactive)
- GI50 [33]: 3.9 µM (inactive)
- GI50 [34]: 1.83 µM (inactive)
- GI50 [35]: 1.7 µM (inactive)
- GI50 [36]: 1.75 µM (inactive)
- GI50 [37]: 1.33 µM (inactive)
- GI50 [38]: 6.87 µM (inactive)
- GI50 [39]: 0.893 µM (active)
- GI50 [40]: 2.4 µM (inactive)
- GI50 [41]: 4.19 µM (inactive)
- GI50 [42]: 2.02 µM (inactive)
- GI50 [43]: 1.87 µM (inactive)
- GI50 [44]: 1.73 µM (inactive)
- GI50 [45]: 2.15 µM (inactive)
- GI50 [46]: 2.23 µM (inactive)
- GI50 [47]: 1.8 µM (inactive)
- GI50 [48]: 10.7 µM (inactive)
- GI50 [49]: 3.53 µM (inactive)
- GI50 [50]: 1.94 µM (inactive)
- GI50 [51]: 1.83 µM (inactive)
- GI50 [52]: 1.52 µM (inactive)
- GI50 [53]: 1.77 µM (inactive)

Structure (SMILES): O=C(NCc1ccc(Cl)c(Cl)c1)c1nc2ccccc2nc1NCc1ccc(Cl)c(Cl)c1
- GI50 [1]: > 100 µM (inactive)
- GI50 [2]: > 100 µM (inactive)
- GI50 [3]: > 100 µM (inactive)
- GI50 [4]: > 100 µM (inactive)
- GI50 [5]: > 100 µM (inactive)
- GI50 [6]: > 100 µM (inactive)
- GI50 [7]: > 100 µM
- GI50 [8]: > 100 µM (inactive)
- GI50 [9]: > 100 µM (inactive)
- GI50 [10]: > 100 µM (inactive)
- GI50 [11]: > 100 µM (inactive)
- GI50 [12]: > 100 µM (inactive)
- GI50 [13]: > 100 µM (inactive)
- GI50 [14]: > 100 µM (inactive)
- GI50 [15]: > 100 µM (inactive)
- GI50 [16]: > 100 µM (inactive)
- GI50 [17]: > 100 µM (inactive)
- GI50 [18]: > 100 µM (inactive)
- GI50 [19]: > 100 µM (inactive)
- GI50 [20]: > 100 µM (inactive)
- GI50 [21]: > 100 µM (inactive)
- GI50 [23]: > 100 µM (inactive)
- GI50 [54]: 83.6 µM (inactive)
- GI50 [24]: > 100 µM (inactive)
- GI50 [26]: > 100 µM (inactive)
- GI50 [55]: > 100 µM (inactive)
- GI50 [27]: > 100 µM (inactive)
- GI50 [28]: > 100 µM (inactive)
- GI50 [56]: > 100 µM (inactive)
- GI50 [29]: > 100 µM (inactive)
- GI50 [30]: > 100 µM (inactive)
- GI50 [31]: > 100 µM (inactive)
- GI50 [32]: > 100 µM (inactive)
- GI50 [33]: > 100 µM (inactive)
- GI50 [34]: > 100 µM (inactive)
- GI50 [35]: > 100 µM (inactive)
- GI50 [36]: > 100 µM (inactive)
- GI50 [57]: > 100 µM (inactive)
- GI50 [39]: > 100 µM (inactive)
- GI50 [40]: > 100 µM (inactive)
- GI50 [41]: > 100 µM (inactive)
- GI50 [42]: > 100 µM (inactive)
- GI50 [58]: > 100 µM (inactive)
- GI50 [43]: > 100 µM (inactive)
- GI50 [44]: > 100 µM (inactive)
- GI50 [45]: > 100 µM (inactive)
- GI50 [46]: > 100 µM (inactive)
- GI50 [47]: > 100 µM (inactive)
- GI50 [48]: > 100 µM (inactive)
- GI50 [49]: > 100 µM (inactive)
- GI50 [50]: > 100 µM (inactive)
- GI50 [51]: > 100 µM (inactive)
- GI50 [52]: > 100 µM (inactive)
- GI50 [53]: > 100 µM (inactive)

Structure (SMILES): COC(=O)[C@]12C3=C(O)C(=O)C[C@H]1OC[C@H]2C=CC3
- GI50 [1]: > 100 µM (inactive)
- GI50 [2]: > 100 µM (inactive)
- GI50 [3]: > 100 µM (inactive)
- GI50 [4]: > 100 µM (inactive)
- GI50 [5]: > 100 µM (inactive)
- GI50 [6]: > 100 µM (inactive)
- GI50 [7]: > 100 µM
- GI50 [8]: > 100 µM (inactive)
- GI50 [9]: > 100 µM (inactive)
- GI50 [10]: > 100 µM (inactive)
- GI50 [11]: > 100 µM (inactive)
- GI50 [12]: > 100 µM (inactive)
- GI50 [13]: > 100 µM (inactive)
- GI50 [14]: 64 µM (inactive)
- GI50 [15]: > 100 µM (inactive)
- GI50 [16]: > 100 µM (inactive)
- GI50 [18]: > 100 µM (inactive)
- GI50 [19]: > 100 µM (inactive)
- GI50 [20]: > 100 µM (inactive)
- GI50 [21]: > 100 µM (inactive)
- GI50 [54]: > 100 µM (inactive)
- GI50 [24]: > 100 µM (inactive)
- GI50 [25]: > 100 µM (inactive)
- GI50 [26]: > 100 µM (inactive)
- GI50 [55]: > 100 µM (inactive)
- GI50 [27]: > 100 µM (inactive)
- GI50 [56]: 20.1 µM (inactive)
- GI50 [29]: > 100 µM (inactive)
- GI50 [30]: > 100 µM (inactive)
- GI50 [59]: > 100 µM (inactive)
- GI50 [31]: > 100 µM (inactive)
- GI50 [32]: > 100 µM (inactive)
- GI50 [34]: > 100 µM (inactive)
- GI50 [35]: > 10 µM (inactive)
- GI50 [36]: > 100 µM (inactive)
- GI50 [57]: > 100 µM (inactive)
- GI50 [37]: > 100 µM (inactive)
- GI50 [38]: > 100 µM (inactive)
- GI50 [39]: > 100 µM (inactive)
- GI50 [40]: > 100 µM (inactive)
- GI50 [41]: > 100 µM (inactive)
- GI50 [42]: > 100 µM (inactive)
- GI50 [58]: 29.2 µM (inactive)
- GI50 [43]: > 100 µM (inactive)
- GI50 [44]: > 100 µM (inactive)
- GI50 [45]: > 100 µM (inactive)
- GI50 [46]: > 100 µM (inactive)
- GI50 [47]: > 100 µM (inactive)
- GI50 [48]: > 100 µM (inactive)
- GI50 [49]: > 100 µM (inactive)
- GI50 [51]: > 100 µM (inactive)
- GI50 [52]: > 100 µM (inactive)
- GI50 [53]: > 100 µM (inactive)
